Data: paper PMC9945182 (Chemical Research in Toxicology, 2023)
Like-named read-outs stand apart in the source and are kept apart here.

Legend:
UGT2B10 = molecular target: T1, UGT2B10 (Homo sapiens, UniProt P36537); settings: previous studies; cited from earlier work
T1 sequence (P36537 24-528): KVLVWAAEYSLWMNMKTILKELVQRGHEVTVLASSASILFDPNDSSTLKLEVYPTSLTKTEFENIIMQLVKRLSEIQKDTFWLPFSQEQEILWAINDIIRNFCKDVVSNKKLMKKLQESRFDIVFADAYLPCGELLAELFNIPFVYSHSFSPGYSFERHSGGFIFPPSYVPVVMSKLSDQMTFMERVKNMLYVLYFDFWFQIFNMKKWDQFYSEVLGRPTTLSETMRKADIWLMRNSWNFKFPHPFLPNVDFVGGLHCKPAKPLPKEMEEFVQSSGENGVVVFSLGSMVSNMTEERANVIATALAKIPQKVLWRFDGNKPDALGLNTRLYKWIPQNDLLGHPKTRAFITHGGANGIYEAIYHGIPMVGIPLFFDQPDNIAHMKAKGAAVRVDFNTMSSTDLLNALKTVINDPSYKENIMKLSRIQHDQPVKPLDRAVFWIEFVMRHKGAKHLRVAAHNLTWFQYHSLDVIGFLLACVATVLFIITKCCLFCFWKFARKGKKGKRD

UGT2B17 = molecular target: T2, UGT2B17 (Homo sapiens, UniProt O75795); assay type: biochemical; settings: UGT2B17 microsomes; 3HC as substrate; screening
T2 sequence (O75795 24-530): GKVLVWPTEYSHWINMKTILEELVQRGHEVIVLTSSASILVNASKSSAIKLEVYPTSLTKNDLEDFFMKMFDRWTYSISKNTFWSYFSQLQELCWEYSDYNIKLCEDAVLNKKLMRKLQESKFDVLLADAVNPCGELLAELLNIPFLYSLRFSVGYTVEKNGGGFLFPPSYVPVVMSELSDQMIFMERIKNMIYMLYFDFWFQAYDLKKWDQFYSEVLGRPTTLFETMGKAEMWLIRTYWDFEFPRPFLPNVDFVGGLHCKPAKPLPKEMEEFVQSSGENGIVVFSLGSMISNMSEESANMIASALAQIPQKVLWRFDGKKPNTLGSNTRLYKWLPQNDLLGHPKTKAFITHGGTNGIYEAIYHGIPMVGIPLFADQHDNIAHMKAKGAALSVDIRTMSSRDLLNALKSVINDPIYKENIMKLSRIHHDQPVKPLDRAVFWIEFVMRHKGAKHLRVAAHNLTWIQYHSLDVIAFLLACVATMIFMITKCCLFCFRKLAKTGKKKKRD

cigarette smokers = settings: single 800 mg oral dose, compared with a placebo group; cited from earlier work
[1] = tested on: human liver microsomes (HLM); assay: Inhibition of 3HC to 3HC-Gluc formation in human liver microsomes; assay type: biochemical; settings: up to 100 μM CBD
UGT1A9 = molecular target: T3, UGT1A9 (Homo sapiens, UniProt O60656); assay type: biochemical; settings: 3HC 30 mM; for decrease in 3HC-Gluc formation: UGT1A9 microsomes; for IC50: rec UGT1A9 microsomes
T3 sequence (O60656 26-530): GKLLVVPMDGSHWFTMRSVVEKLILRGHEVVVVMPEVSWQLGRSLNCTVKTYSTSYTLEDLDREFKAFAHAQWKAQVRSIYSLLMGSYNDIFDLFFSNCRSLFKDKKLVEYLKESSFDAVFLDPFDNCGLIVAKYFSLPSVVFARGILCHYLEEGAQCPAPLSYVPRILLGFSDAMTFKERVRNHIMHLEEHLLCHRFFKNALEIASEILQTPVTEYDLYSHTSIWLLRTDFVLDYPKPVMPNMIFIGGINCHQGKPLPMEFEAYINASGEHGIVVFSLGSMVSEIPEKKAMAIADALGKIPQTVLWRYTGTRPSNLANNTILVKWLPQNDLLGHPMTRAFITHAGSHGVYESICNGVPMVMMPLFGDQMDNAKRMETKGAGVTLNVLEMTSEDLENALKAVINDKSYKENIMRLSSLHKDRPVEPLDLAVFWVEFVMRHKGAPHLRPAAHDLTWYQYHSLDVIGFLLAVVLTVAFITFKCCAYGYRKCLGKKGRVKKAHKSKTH

CYP2A6 = molecular target: T4, CYP2A6 (Homo sapiens, UniProt P11509); assay type: biochemical; settings: 10 μM inhibitor; cotinine substrate; CYP2A6 microsomes
T4 sequence (P11509 1-494): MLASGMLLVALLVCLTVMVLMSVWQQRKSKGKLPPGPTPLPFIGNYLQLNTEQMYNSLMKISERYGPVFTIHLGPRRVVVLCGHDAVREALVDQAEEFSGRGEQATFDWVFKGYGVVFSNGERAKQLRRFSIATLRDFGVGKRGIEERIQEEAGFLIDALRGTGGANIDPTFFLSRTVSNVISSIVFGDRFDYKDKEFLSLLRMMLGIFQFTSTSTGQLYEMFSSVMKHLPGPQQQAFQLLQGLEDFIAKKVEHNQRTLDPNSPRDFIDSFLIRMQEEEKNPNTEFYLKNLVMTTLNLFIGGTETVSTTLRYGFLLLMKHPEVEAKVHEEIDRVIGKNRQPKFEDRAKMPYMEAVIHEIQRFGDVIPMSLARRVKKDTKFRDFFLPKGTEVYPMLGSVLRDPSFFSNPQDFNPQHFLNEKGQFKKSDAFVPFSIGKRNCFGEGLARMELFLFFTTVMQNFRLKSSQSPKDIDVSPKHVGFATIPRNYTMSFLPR

Row | Structure (SMILES) | inhibition of nicotine-Gluc formation by UGT2B10 (UGT2B10) | effect on 3HC-Gluc formation (UGT2B17) | effect on cigarette cues (cigarette smokers) | inhibition of 3HC-Gluc formation [1] [%] | decrease in 3HC-Gluc formation (UGT1A9; 1 μM CBD) [%] | decrease in 3HC-Gluc formation (UGT1A9; 10 μM CBD) [%] | IC50 (UGT1A9; IC50, 3HC-Gluc formation, 2% BSA) [µM] | IC50 (UGT1A9; IC50,u (binding-corrected IC50), 3HC-Gluc formation, IC50 × fu,inc) [µM] | inhibition of COX formation (CYP2A6) [%]
1 | C=C(C)[C@@H]1CCC(C)=C[C@H]1c1c(O)cc(CCCCC)cc1O [CBD, cannabidiol] | does not inhibit | not inhibited | reduced the salience and pleasantness of cigarette cues | < 45 | 55 | 65 | 9.7 ± 1.5 | 0.37 ± 0.06 | 
2 | C=C(C)[C@@H]1CCC(CO)=C[C@H]1c1c(O)cc(CCCCC)cc1O [7-OH-CBD, 7-hydroxy-cannabidiol] |  |  |  |  |  |  |  |  | 40
